tested on: S. cerevisiae LAP4-GFP reporter, flow cytometry fluorescence; assay: LAP4-GFP modulation potency in yeast, dose response, cell-based, MLPCN hits, flow cytometry (AID 2745);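 further: yeast exposed to compound for three hours at 30 degrees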

| SMILES | EC50 |
| --- | --- |
| CS(=O)(=O)c1nc(-c2cccs2)cc(C(F)(F)F)n1 | 30.5 µM |
| O=C1NC(=O)C(=Cc2ccc(-c3ccc(Cl)cc3)o2)C(=O)N1 | 1.41 µM |
| CC(C)(C)c1nnc(N/N=C/c2cc(Br)ccc2O)n(N)c1=O | 12.2 µM |
| Cc1ccc(C(=O)NNC(=S)NC(=O)COc2ccccc2)cc1 | 8.27 µM |
| O=C1c2ccccc2C(=O)C2OC12 (stereo not drawn) | 19.6 µM |
| Cc1ccc(/C=N/Nc2ncc(Cl)cc2Cl)s1 | 31.7 µM |
| CCc1ccc2c(c1)/C(=C/C(=O)c1cccs1)C(=O)N2 | 4.07 µM |
| Cc1ccc(O)c(N=Nc2nccs2)c1 | 4.52 µM |
| O=C1Oc2ccccc2C(=O)/C1=C/c1ccccc1O | 3.75 µM |
| O=C1C2C3C=CC(CO)(O3)C2C(=O)N1c1ccc(-c2ccccc2)cc1 (stereo not drawn) | 1.53 µM |
| CC1=CC(=O)C(C(C)C)=C/C1=N/OS(=O)(=O)c1ccccc1 | 9.59 µM |
| Clc1ccc(N=c2ssnc2Cl)cc1 | 19.3 µM |
| COc1ccc(C(=O)NC(=S)NNC(=O)c2cnccn2)cc1 | 1.32 µM |
| O=C(Oc1c(Cl)cc(Cl)c2cccnc12)c1cccc([N+](=O)[O-])c1 | 2.02 µM |
| N/C(Cc1ccc(Cl)cc1Cl)=N\OC(=O)c1cccs1 | 4.48 µM |
| Cc1ccccc1N=Nc1ccc(O)c2ncccc12 | 7.96 µM |
| O=C(/C=C/c1ccccn1)c1cc(Br)ccc1O | 4.09 µM |
| CN1CCN(C(c2ccc(C(F)(F)F)cc2)c2ccc3cccnc3c2O)CC1 (stereo not drawn) | 6.72 µM |
| O=C(CCc1ccccc1)NNC(=S)NC(=O)c1ccccc1 | 32.2 µM |
| Oc1ccc(Br)cc1/C=N/Nc1ccccn1 | 22.7 µM |

| SMILES | EC50 |
| --- | --- |
| CC(C)(C)n1nc(-c2ccc(F)cc2)c2c(N)ncnc21 | 3.51 µM |
| COc1ccc(N=Nc2ccc(O)c3ncccc23)cc1 | 6.43 µM |
| COc1cccc(/C=N/Nc2ncc(C(F)(F)F)cc2Cl)c1O | 6.3 µM |
| CCOC(=O)/C(=C\c1cn(C)c2ccccc12)[N+](=O)[O-] | 2.24 µM |
| CNC(CC(=O)c1ccc([N+](=O)[O-])cc1)C(Cl)(Cl)Cl (stereo not drawn) | 1.34 µM |
| COc1cc(/C=C2\C(=O)N(CCC#N)N=C2C)c(Br)cc1OC(C)C | 4.16 µM |
| CCc1cc(C(=O)Nc2nc(-c3ccccn3)cs2)sc1C | 5.96 µM |
| O=C(c1ccccc1)c1ccccc1N1C(=O)C=CC1=O | 2 µM |
| Cc1ccc(/C=C2/SC(=S)N(C3CCCCC3)C2=O)o1 | 13.3 µM |
| C/C(=N\NC(=O)c1cc2ccccc2cc1O)c1ccccn1 | 3.98 µM |
| Clc1cccc(CN2COc3c(cc(Cl)c4cccnc34)C2)c1 | 8.55 µM |
| c1ccc(-c2cccc(-c3ccccn3)n2)nc1 | 3.9 µM |
| CC1(C)C[C@H]2C=C(C=O)[C@]3(C=O)C[C@]3(C)[C@H]2C1 | 0.865 µM |
| CCOC(=O)CSC1=NC(=O)/C(=C\c2ccc(Cl)cc2)S1 | 27 µM |
| Cc1cccc(C(=O)NC(=S)NNC(=O)Cc2ccccc2)c1 | 10.9 µM |
| N/C(Cc1ccc(Cl)cc1)=N\OC(=O)c1cccc2ccccc12 | 1.88 µM |
| O=C(COc1ccc(F)cc1Cl)Nc1nc(-c2ccccn2)cs1 | 2.98 µM |
| Cc1[nH]c(-c2ccccn2)nc(=S)c1Cl | 4.58 µM |
| N/C(Cc1ccc(Cl)cc1)=N\OC(=O)c1ccccc1 | 4.4 µM |
| Cn1c(=O)c(C(=O)NNC(=O)c2ccc(Br)cc2)c(O)c2ccccc21 | 0.762 µM |

| SMILES | EC50 |
| --- | --- |
| O=[N+]([O-])c1ccc(N=Nc2c(Cl)cc(O)cc2Cl)cc1 | 4.97 µM |
| Cc1ccc(S(=O)(=O)ON2C(=O)c3ccccc3C2=O)c(C)c1 | 3.89 µM |
| O=C1C=CC(=O)N1N(c1ccccc1)c1ccccc1 | 2.7 µM |
| CCCCS(=O)(=O)/C=C\C=C/S(=O)(=O)CCCC | 2.54 µM |
| COc1ccc(N2C(=O)C(Cl)=C(Oc3cccc(OC)c3)C2=O)cc1 | 4.89 µM |
| Cc1cccnc1Nc1nc(-c2ccccn2)cs1 | 3.7 µM |
| Cc1cccc(N=Nc2ccc(O)c3ncccc23)c1 | 14 µM |
| Oc1c(I)cc(Cl)c2cccnc12 | 0.986 µM |
| COc1ccccc1N=Nc1ccc(O)c2ncccc12 | 4.25 µM |
| CC(C)(C)n1nc(-c2ccc(Cl)cc2)c2c(N)ncnc21 | 4.82 µM |
| O=[N+]([O-])c1cc(F)c2cccnc2c1O | 1.19 µM |
| CC1=NOC(=O)/C1=C\c1ccc(-c2cc(Cl)ccc2Cl)o1 | 26.8 µM |
| COc1ccc(/C=C/C(=O)NC(=S)NNC(=O)c2cnccn2)cc1 | 1.31 µM |
| CCCOc1ccc(C(=O)NNC(=S)NC(=O)CC)cc1 | 11.5 µM |
| COc1ccc(C(=O)NNC(=S)NC(=O)/C=C/c2cccs2)cc1 | 9.05 µM |
| CCOC(=O)COc1ccc2ccccc2c1/C=C/[N+](=O)[O-] | 4.41 µM |
| COc1ccc(C(c2c(C)[nH]n(C(N)=S)c2=O)C(C#N)C#N)cc1 (stereo not drawn) | 2.08 µM |
| O=C(OCn1ncc(Br)c(Br)c1=O)c1ccc(F)cc1 | 19.1 µM |
